Experiments:
Conditions in all cases: exposure time: 72 h
T98G [1] = test: Loewe synergy score (Combenefit); higher = more synergy; extreme values may be limits of the assay
Procedure: (§1)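 The same 6x6 dose matrices of drug pairs on glioma cell lines (72 h, CellTiter-Glo viability normalised to DMSO, triplicate) were scored with Combenefit. The Loewe, Bliss and HSA synergy scores are given; paper thresholds are Loewe 7.8 and Bliss 2.5.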

U118 [2] = test: as above
Procedure: as §1

U87 [3] = test: as above
Procedure: as §1

SF539 [4] = test: as above
Procedure: as §1

KNS-42 [5] = test: as above
Procedure: as §1

SF268 [6] = test: as above
Procedure: as §1

AM-38 [7] = test: as above
Procedure: as §1

U251 [8] = test: as above
Procedure: as §1

SNB75 [9] = test: as above
Procedure: as §1

T98G [10] = test: HSA synergy score (Combenefit); higher = more synergy
Procedure: as §1

U118 [11] = test: as above
Procedure: as §1

U87 [12] = test: as above
Procedure: as §1

SF539 [13] = test: as above
Procedure: as §1

KNS-42 [14] = test: as above
Procedure: as §1

SF268 [15] = test: as above
Procedure: as §1

AM-38 [16] = test: as above
Procedure: as §1

U251 [17] = test: as above
Procedure: as §1

SNB75 [18] = test: as above
Procedure: as §1

U118 [19] = test: Chou-Talalay combination index (dimensionless); higher = less synergy (more antagonism)
Procedure: (§2)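 Glioma cell lines were treated for 72 h with a 6x6 matrix of two drugs, each in twofold dilutions with the top dose at the single-drug IC50. Viability was read by CellTiter-Glo and normalised to DMSO controls, in triplicate. The Chou-Talalay combination index was computed by the median effect principle; CI < 0.8 means synergy.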

KNS42 = test: as above
Procedure: as §2

U87 [20] = test: as above
Procedure: as §2

SF539 [21] = test: as above
Procedure: as §2

SF268 [22] = test: as above
Procedure: as §2

T98 = test: as above
Procedure: as §2

U251 [23] = test: as above
Procedure: as §2

SNB75 [24] = test: as above
Procedure: as §2

AM38 = test: as above
Procedure: as §2

T98G [25] = test: Bliss synergy score (Combenefit); higher = more synergy; extreme values may be limits of the assay
Procedure: as §1

U118 [26] = test: as above
Procedure: as §1

U87 [27] = test: as above
Procedure: as §1

SF539 [28] = test: as above
Procedure: as §1

KNS-42 [29] = test: as above
Procedure: as §1

SF268 [30] = test: as above
Procedure: as §1

AM-38 [31] = test: as above
Procedure: as §1

U251 [32] = test: as above
Procedure: as §1

SNB75 [33] = test: as above
Procedure: as §1

Compound	Loewe synergy score (T98G [1])	Loewe synergy score (U118 [2])	Loewe synergy score (U87 [3])	Loewe synergy score (SF539 [4])	Loewe synergy score (KNS-42 [5])	Loewe synergy score (SF268 [6])	Loewe synergy score (AM-38 [7])	Loewe synergy score (U251 [8])	Loewe synergy score (SNB75 [9])	HSA synergy score (T98G [10])	HSA synergy score (U118 [11])	HSA synergy score (U87 [12])	HSA synergy score (SF539 [13])	HSA synergy score (KNS-42 [14])	HSA synergy score (SF268 [15])	HSA synergy score (AM-38 [16])	HSA synergy score (U251 [17])	HSA synergy score (SNB75 [18])	Chou-Talalay combination index (U118 [19])	Chou-Talalay combination index (KNS42)	Chou-Talalay combination index (U87 [20])	Chou-Talalay combination index (SF539 [21])	Chou-Talalay combination index (SF268 [22])	Chou-Talalay combination index (T98)	Chou-Talalay combination index (U251 [23])	Chou-Talalay combination index (SNB75 [24])	Chou-Talalay combination index (AM38)	Bliss synergy score (T98G [25])	Bliss synergy score (U118 [26])	Bliss synergy score (U87 [27])	Bliss synergy score (SF539 [28])	Bliss synergy score (KNS-42 [29])	Bliss synergy score (SF268 [30])	Bliss synergy score (AM-38 [31])	Bliss synergy score (U251 [32])	Bliss synergy score (SNB75 [33])
Nc1ccn([C@@H]2O[C@H](CO)[C@@H](O)C2(F)F)c(=O)n1 [Gemcitabine] + C[C@@H](Oc1cc(-c2cnn(C3CCNCC3)c2)cnc1N)c1c(Cl)ccc(F)c1Cl [Crizotinib]	0	0.443	0.0421	0	0.0765	0.179	3.12	2.98	5.91	0	0.488	0.0446	2.44	1.25	1.93	3.33	7.75	7.67	0.987	0.783	1.25	0.801	0.954	1.03	0.752	0.899	0.719	0	0.063	0	0.0351	0	0.175	0.116	0.679	4.81
Nc1ccn([C@@H]2O[C@H](CO)[C@@H](O)C2(F)F)c(=O)n1 [Gemcitabine] + Cc1cc([C@@H](C)Nc2ccccc2C(=O)O)c2nc(N3CCOCC3)cc(=O)n2c1 [AZD6482]	5.66	2.14	0	2.33	5.37	1.75	3.23	1.85	3.53	10.5	10.3	0	10.4	5.37	7.02	4.54	1.85	4.1	0.887	0.868	1.15	0.738	0.783	0.889	0.758	0.607	0.967	3.93	1.86	0	0.274	2.32	0.693	0.237	1.85	0
C=CCc1cccc(/C=N/NC(=O)CN2CCN(Cc3ccccc3)CC2)c1O [PAC-1] + CCOc1nc(NC(=O)Cc2cc(OC)ccc2OC)cc(N)c1C#N [JNK inhibitor VIII]	1.34	2.38	4.97	2.49	7.1	0.606	0.484	0.13	5.04	3.49	2.56	5.02	7.4	11.2	5.39	3.74	3.65	6.97	0.622	0.944	0.794	0.58	0.951	0.982	0.85	0.91	0.965	0	0.51	0.501	3.99	0	1.09	0	2.01	0.0865
C=CCc1cccc(/C=N/NC(=O)CN2CCN(Cc3ccccc3)CC2)c1O [PAC-1] + Cc1cc([C@@H](C)Nc2ccccc2C(=O)O)c2nc(N3CCOCC3)cc(=O)n2c1 [AZD6482]	10.2	1.77	2.96	0.0112	2.36	0.594	10.2	1.75	14.6	11.9	4.06	2.96	0.0112	2.36	4.9	10.7	1.75	21.4	0.962	0.882	0.635	1.01	0.979	0.865	0.847	0.976	0.845	5.94	0.918	2.96	0	2.36	0.355	8.49	1.75	10.9
CO[C@H]1C[C@@H]2CC[C@@H](C)[C@@](O)(O2)C(=O)C(=O)N2CCCC[C@H]2C(=O)O[C@H]([C@H](C)C[C@@H]2CC[C@@H](O)[C@H](OC)C2)CC(=O)[C@H](C)/C=C(\C)[C@@H](O)[C@@H](OC)C(=O)[C@H](C)C[C@H](C)/C=C/C=C/C=C/1C [Rapamycin] + C=CCc1cccc(/C=N/NC(=O)CN2CCN(Cc3ccccc3)CC2)c1O [PAC-1]	0	3.97	0	3.72	13.7	5.45	0.274	0.233	7.67	1.1	4.75	0.71	4.8	14.1	5.88	0.274	0.552	8.87	1.03	0.607	1.01	0.975	0.962	1.13	0.927	0.925	1.24	0	0	0	0.0748	5.47	0	0	0.334	0.0756
